The text below walks through data of patent publication US20110237538A1, “TREATMENT OF LYSOSOMAL STORAGE DISORDERS AND OTHER PROTEOSTATIC DISEASES” (SUMMIT CORPORATION PLC, priority 2008, published 2011).

Molecules are shown by their SMILES. Some results are limits rather than exact numbers.

What all share (format): biochemical
Assay [1] addresses T1, wild type (wt) beta-glucocerebrosidase (Homo sapiens, UniProt P04062).
T1 construct: The lysates were used as a source for wild type (wt) beta-glucocerebrosidase; endogenous in cells; host or cells: HL60 (ECACC No. 98070106) lysate
T1 sequence (P04062 40-536): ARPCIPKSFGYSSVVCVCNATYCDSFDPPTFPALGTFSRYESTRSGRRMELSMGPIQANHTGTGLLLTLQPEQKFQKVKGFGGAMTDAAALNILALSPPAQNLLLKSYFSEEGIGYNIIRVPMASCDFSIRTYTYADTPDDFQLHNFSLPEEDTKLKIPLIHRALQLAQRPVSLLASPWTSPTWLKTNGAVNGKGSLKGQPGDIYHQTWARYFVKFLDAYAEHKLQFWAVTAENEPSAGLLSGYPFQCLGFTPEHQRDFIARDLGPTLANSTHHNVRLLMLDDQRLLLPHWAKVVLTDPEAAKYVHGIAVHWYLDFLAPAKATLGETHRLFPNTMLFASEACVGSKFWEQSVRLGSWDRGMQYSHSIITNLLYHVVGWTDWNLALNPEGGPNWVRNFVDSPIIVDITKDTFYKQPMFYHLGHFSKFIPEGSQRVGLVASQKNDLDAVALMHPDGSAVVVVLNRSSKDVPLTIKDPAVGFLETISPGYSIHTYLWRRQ
Put plainly: beta-glucocerebrosidase activity assay in HL60 lysate (4MU-β-D-glc).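 Note: fluorometric read-out of 4MU liberated from the substrate (ex 360 nm, em 450 nm) after 37 °C incubation, reaction stopped with sodium carbonate.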 The conditions noted are these: at a concentration of 100 μM, 0.5 mM 4MU-β-D-glc.

For assay [2], the target named is T2, wild type (wt) alpha-galactosidase (Homo sapiens, UniProt P06280).
T2 construct: The lysates were used as a source for wild type (wt) alpha-galactosidase; endogenous in cells; host or cells: HL60 (ECACC No. 98070106) lysate
T2 sequence (P06280 32-429): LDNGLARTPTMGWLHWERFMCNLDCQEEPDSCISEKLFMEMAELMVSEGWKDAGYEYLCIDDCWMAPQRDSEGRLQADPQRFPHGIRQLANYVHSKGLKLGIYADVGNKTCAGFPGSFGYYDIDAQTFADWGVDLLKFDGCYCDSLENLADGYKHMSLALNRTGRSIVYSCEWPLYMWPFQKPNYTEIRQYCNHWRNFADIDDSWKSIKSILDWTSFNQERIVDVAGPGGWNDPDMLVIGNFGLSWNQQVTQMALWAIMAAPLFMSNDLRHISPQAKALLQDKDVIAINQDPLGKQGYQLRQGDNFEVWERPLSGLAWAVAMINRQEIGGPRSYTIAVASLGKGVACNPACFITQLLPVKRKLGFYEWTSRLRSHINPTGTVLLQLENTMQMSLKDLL
Kind of assay: alpha-galactosidase activity assay in HL60 lysate (4MU-α-D-gal). The conditions noted are these: at a concentration of 100 uM, 0.5 mM 4MU-α-D-gal, pH 4.5.

Assay [3] has as its system α-D-glucosidase (Bacillus sterothermophilus). Put plainly: glycosidase assay with p-nitrophenyl substrates (Example 2). The conditions noted are these: 10 μl of 5 mM iminosugar solution in 70 μl incubation mixture; 20° C. The procedure:
(§1) The assays were conducted as described by Watson et al. 1997, Phytochemistry 46: 255-259 using p-nitrophenyl-substrates. Assays were carried out in microtitre plates. Enzymes were assayed in 0.1M citric acid/0.2M di-sodium hydrogen phosphate (Mcllvaine) buffers at the optimum pH for the enzyme. All assays were carried out at 20° C. All enzymes and substrates were purchased from Sigma Aldrich Chemicals Limited. The incubation mixture consisted of 10 μl of enzyme solution, 10 μl of the iminosugars solution (made up in deionised water at 5 mM) and 50 μl of the appropriate 5 mM p-nitrophenyl substrate made up in McIlvaine buffer at the optimum pH for the enzyme. The reactions were stopped with 0.4M glycine (pH 10.4) during the exponential phase of the reaction, which was determined at the beginning of the assay using blanks with water, which were incubated for a range of time periods to measure the reaction rate using 5 mM substrate solution. Absorbances were read at 405 nm. Water was substituted for the inhibitors in the blanks.
(§2) The glycosidases used were α-D-glucosidase (yeast), α-D-glucosidase (Bacillus sterothermophilus), α-D-glucosidase (rice), amyloglucosidase (Aspergillus niger), β-D-glucosidase (almond), α-D-galactosidase (green coffee beans), β-D-galactosidase (bovine liver), α-L-fucosidase (bovine kidney), α-D-mannosidase (Jack bean), β-D-mannosidase (Cellullomonas fimi), Naringinase (Penicillium decumbens), N-acetyl-β-D-glucosaminidase (Bovine kidney), N-acetyl-β-D-glucosaminidase (Aspergillus oryzae) and N-acetyl-β-D-glucosaminidase (Jack bean)

The target of assay [4] is T3, α-D-galactosidase (green coffee beans) (Coffea arabica, UniProt Q42656).
T3 construct: purchased Sigma Aldrich Chemicals Limited
The assay is described as above. The conditions noted are these: 10 μl of 5 mM iminosugar solution in 70 μl incubation mixture; 20° C.; read-out: Promotion of glycosidase activity: α-D-galactosidase (Green coffee bean). The procedure:
as §1, §2

Assay [5] has as its target T4, wild type (wt) lysosomal alpha-glucosidase (Homo sapiens, UniProt P10253).
T4 construct: The lysates were used as a source for wild type (wt) lysosomal alpha-glucosidase; endogenous in cells; host or cells: HL60 (ECACC No. 98070106) lysate
Kind of assay: alpha-glucosidase activity assay in HL60 lysate (4MU-α-D-glc).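 Note: fluorometric rate of 4MU product release read at 360 nm excitation and 450 nm emission, reactions run at 37 °C in citric phosphate buffer.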 The conditions noted are these: at a concentration of 100 uM, 0.5 mM 4MU-α-D-glc, pH 4.5.

Usually inhibition stands for the share of the control response that was lost under treatment. A higher inhibition goes with strong suppression.

T3 sequence (Q42656 16-378): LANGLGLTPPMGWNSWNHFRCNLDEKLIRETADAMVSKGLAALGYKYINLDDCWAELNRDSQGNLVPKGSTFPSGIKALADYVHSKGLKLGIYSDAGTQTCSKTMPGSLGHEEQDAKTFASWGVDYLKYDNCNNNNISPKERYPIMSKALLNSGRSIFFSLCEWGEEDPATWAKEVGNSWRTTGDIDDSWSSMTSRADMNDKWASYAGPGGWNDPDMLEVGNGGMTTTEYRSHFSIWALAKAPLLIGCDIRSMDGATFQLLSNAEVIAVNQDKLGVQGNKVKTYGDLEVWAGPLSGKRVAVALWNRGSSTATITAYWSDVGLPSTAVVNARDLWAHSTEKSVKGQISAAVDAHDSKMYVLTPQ

`O[C@@H]1[C@@H](O)[C@H](O)[C@]2(O)CC[C@H]1N2` [Compound 21, (1R,2S,3R,4S,5R)-8-azabicyclo[3.2.1]octane-1,2,3,4-tetraol]: the inhibition at 100 µM in assay [1] and in assay [2] was over 50% in each case.

`O=C1N[C@H](CO)[C@@H](O)[C@H](O)[C@@H]1O` [Compound 112, (3S,4S,5R,6R)-3,4,5-trihydroxy-6-(hydroxymethyl)piperidin-2-one] returned an inhibition at 100 µM in assay [2] of over 50%.

In the case of `OCCN1[C@H](CO)[C@H](O)[C@H](O)[C@H]1CO` [Compound 168, (2R,3R,4S,5R)-1-(2-hydroxyethyl)-2,5-bis(hydroxymethyl)pyrrolidine-3,4-diol], in assay [2], the inhibition at 100 µM was over 50%.

On to `OC[C@H]1N[C@H](CO)[C@H](O)C(O)[C@H]1O` (stereo partly drawn) [Compound 189, (2R,3S,5S,6R)-2,6-bis(hydroxymethyl)piperidine-3,4,5-triol], for which the inhibition at 100 µM in assay [2] was over 50%.

In the case of `CCCCOC(=O)[C@@H]1[C@@H](O)[C@H](O)[C@@H](O)CN1CCCC` [Compound 205, (2S,3R,4R,5S)-butyl 1-butyl-3,4,5-trihydroxypiperidine-2-carboxylate], the “Promotion of glycosidase activity: α-D-glucosidase (Bacillus sterothermophilus)” value (“Promotion of glycosidase activity” below) in assay [3] was 60 % increase in absorbance compared to the water controls.

In assay [2], `OC[C@H]1NC[C@H](O)[C@@H](O)[C@H]1O` [Compound 215, (2R,3S,4R,5S)-2-(hydroxymethyl)piperidine-3,4,5-triol] yielded an inhibition at 100 µM of over 50%.

Consider `CNC(=O)[C@H]1N[C@H](CO)[C@@H](O)[C@H](O)[C@@H]1O` [Compound 246, (2S,3R,4S,5R,6R)-3,4,5-trihydroxy-6-(hydroxymethyl)-N-methylpiperidine-2-carboxamide], for which, in assay [2], the inhibition at 100 µM is over 50%.

In the case of `CN1C[C@@H](O)[C@H](O)[C@@H](O)C1` [Compound 253, (3R,4r,5S)-1-methylpiperidine-3,4,5-triol], the “Promotion of glycosidase activity” value in assay [3] is on record as 56 % increase in absorbance compared to the water controls.

In assay [2], `C[C@H]1NC[C@H](O)[C@@H](O)[C@H]1O` [Compound 258, (2R,3S,4R,5S)-2-methylpiperidine-3,4,5-triol] gave an inhibition at 100 µM of over 50%.

Molecule `C[C@H]1N[C@H](CO)[C@H](O)[C@H](O)[C@H]1O` [Compound 263, (2R,3S,4R,5S,6R)-2-(hydroxymethyl)-6-methylpiperidine-3,4,5-triol] returned an inhibition at 100 µM in assay [2] of over 50%.

In assay [2], `C[C@H]1N[C@@H](CO)[C@H](O)[C@H](O)[C@H]1O` [Compound 264, (2S,3S,4R,5S,6R)-2-(hydroxymethyl)-6-methylpiperidine-3,4,5-triol] gave an inhibition at 100 µM of over 50%.

With `C[C@@H]1N[C@@H](CO)[C@H](O)[C@H](O)[C@H]1O` [Compound 269, (2S,3S,4R,5S,6S)-2-(hydroxymethyl)-6-methylpiperidine-3,4,5-triol], in assay [2], the inhibition at 100 µM was over 50%.

On to `N[C@H]1CN(Cc2ccccc2)[C@@H](CO)[C@@H]1O` [Compound 312, (2S,3R,4S)-4-amino-1-benzyl-2-(hydroxymethyl)pyrrolidin-3-ol], for which the activation at 714 µM in assay [4] worked out at 30%. Further, the “Promotion of glycosidase activity” value in assay [3] was 52 % increase in absorbance compared to the water controls.

`CCCCCCCCCN1C[C@H](NC(C)=O)[C@@H](O)[C@@H]1CO` [Compound 338, N-((3S,4R,5S)-4-hydroxy-5-(hydroxymethyl)-1-nonylpyrrolidin-3-yl)acetamide]: the activation at 714 µM in assay [4] was determined as 35%. The “Promotion of glycosidase activity” value in assay [3] is on record as 170 % increase in absorbance compared to the water controls.

For the molecule `OC[C@@H]1[C@@H](O)[C@H](O)[C@@H](CO)N1CCCOc1ccccc1` [Compound 343, (2R,3R,4R,5R)-2,5-bis(hydroxymethyl)-1-(3-phenoxypropyl)pyrrolidine-3,4-diol], the inhibition at 100 µM in assay [1] and in assay [5] was over 50% throughout.

Turning to `N[C@@H]1CN[C@H](CO)C1` [Compound 344, ((2S,4S)-4-aminopyrrolidin-2-yl)methanol], in assay [3], the “Promotion of glycosidase activity” value is 71 % increase in absorbance compared to the water controls.

As to `CC(=O)N[C@H]1C[C@@H](CO)N(CCO)C1` [Compound 347, N-((3S,5S)-1-(2-hydroxyethyl)-5-(hydroxymethyl)pyrrolidin-3-yl)acetamide], the “Promotion of glycosidase activity” value in assay [3] is given as 68 % increase in absorbance compared to the water controls.

For `CCCCN1C[C@@H](NC(C)=O)C[C@H]1CO` [Compound 350, N-((3S,5S)-1-butyl-5-(hydroxymethyl)pyrrolidin-3-yl)acetamide], the activation at 714 µM in assay [4] was 38%. Further, the “Promotion of glycosidase activity” value in assay [3] was 160 % increase in absorbance compared to the water controls.

Take `N[C@@H]1CN(Cc2ccccc2)[C@H](CO)[C@H]1O` [Compound 370, (2R,3S,4R)-4-amino-1-benzyl-2-(hydroxymethyl)pyrrolidin-3-ol]: the activation at 714 µM in assay [4] was determined as 43%. Also, the “Promotion of glycosidase activity” value in assay [3] was 81 % increase in absorbance compared to the water controls.

`C=CCC[C@H]1N[C@@H](CO)[C@H](O)[C@@H](O)[C@@H]1O` [Compound 380, (2R,3R,4S,5S,6S)-2-(but-3-enyl)-6-(hydroxymethyl)piperidine-3,4,5-triol]: in assay [2], the inhibition at 100 µM was over 50%.

Take `OC[C@H]1NC[C@@H](O)[C@H](O)[C@H]1O` [Compound 447, (2R,3S,4S,5R)-2-(hydroxymethyl)piperidine-3,4,5-triol]: the inhibition at 100 µM in assay [2] was over 50%.

In the case of `OC[C@@H]1[C@@H](O)[C@H](O)[C@@H](O)CN1Cc1ccc(-c2ccccc2)cc1` [Compound 524, (2R,3R,4R,5S)-1-(biphenyl-4-ylmethyl)-2-(hydroxymethyl)piperidine-3,4,5-triol], the inhibition at 100 µM in assay [1] and in assay [5] was over 50% each time.

As for `OC[C@@H]1[C@@H](O)[C@H](O)[C@@H](CO)N1CCOCc1ccccc1` [Compound 556, (2R,3R,4R,5R)-1-(2-(benzyloxy)ethyl)-2,5-bis(hydroxymethyl)pyrrolidine-3,4-diol], the inhibition at 100 µM in assay [1] and in assay [5] was over 50% each time.

On to `OCCCCCCCCCN1C[C@H](O)[C@@H](O)[C@H](O)[C@H]1CO` [Compound 724, (2R,3R,4R,5S)-2-(hydroxymethyl)-1-(9-hydroxynonyl)piperidine-3,4,5-triol], for which the inhibition at 100 µM in assay [1] and in assay [5] was over 50% each time.
